Test results from US20140121235A1, “Method for Treating S6K-Overexpressing Cancers” (Rush University Medical Center, priority 2012, published 2014).

Experiments:
[1] = test system: AKT^S473 and S6K1^T389 phosphorylation; assay: Western blot of PI-3 kinase pathway phosphorylation in A375 cells; assay type: cell-based; conditions: for effect on AKT^S473 phosphorylation in A77 1726-treated cells: A375 cells, MAP kinase pathway inhibitor plus A77 1726
Description: (§1) A375 cells seeded in a 6-well plate were starved in DMEM medium containing 0.5% FBS for 2 hr and treated with the indicated concentration of A77 1726 or PLX 4720 (1 μM) for another 2 hr (A) or treated with A77 1726 (100 μM) for the indicated time (B & C). Cells were harvested and analyzed for protein phosphorylation by specific antibodies as indicated. Protein loading was monitored by stripping membrane and re-probing with antibodies against non-phosphorylated proteins. […] A375 cells seeded in a 6-well plate were starved in DMEM medium containing 05% FBS for 2 hr and treated with the indicated concentration of A77 1726 in the absence or presence of uridine (200 μM). Phosphorylated and total proteins were analyzed by Western blot as described above.
(§2) A375 cells seeded in 6-well plates were starved in DMEM medium containing 0.5% FBS for 2 hr and then pre-treated with vehicle (0.1% dimethyl sulfoxide), LY294002 (10 μM) (A), PPP (1 μM) (B), or the inhibitors of the MAP kinase pathway (PLX4720, 1 μM; U0126, 10 μM; PD98059, 10 μM) (C) for 1 hr. Cells were then treated with A77 1726 (100 μM) or rapamycin (20 nM) as indicated for 2 hr. Cells were harvested and analyzed for protein phosphorylation by specific antibodies as indicated. Protein loading was monitored by stripping membrane and re-probing with antibodies against non-phosphorylated proteins.
(§3) Cells grown in 6-well plates were harvested and lysed in NP-40 lysis buffer (50 mM Tris-HCI (pH 8.0), 150 mM NaCl, 1% NP-40, 5 mM EDTA, 10 μg/ml aprotinin, 10 μg/ml leupeptin, and 1 mM phenylmethylsulfonyl fluoride). After incubation on ice for 30 min, the cell lysates were prepared by spinning down at 4° C., 15,000 rpm for 15 min. After electrophoresis and transfer to Immobolin membrane, proteins of interest were probed with their specific antibodies, followed by horseradish peroxidase-conjugated goat anti-rabbit IgG and SuperSignal Western Pico enhanced chemiluminoscence substrate (Pierce Chemical Co., Rockford, Ill.).
(§4) The PI-3 and MAP kinase pathways play an important role in cell proliferation, differentiation, and cell cycle progress. Multiple genes in these two pathways are frequently mutated and have a commanding role in driving tumorigenesis and tumor cell proliferation (2; 3). […] Here we tested whether A77 1726 affected the activation of MAP and PI-3 kinase pathways. A375 cells grown in 6-well plates were starved in the media containing 0.5% FBS for 2 hr and then treated with the indicated concentration of A77 1726. […] We next explored the effect of A77 1726 in phosphorylation of the molecules in the PI-3 kinase pathway.

[2] = test system: ERK1/2^T202/Y204 and MEK1/2^S217/S221 phosphorylation; assay: Western blot of MAP kinase pathway phosphorylation in A375 cells; assay type: cell-based; conditions: for block of A77 1726-induced ERK1/2 and MEK1/2 phosphorylation: A375 cells pre-treated with inhibitor 1 hr, then A77 1726 100 μM 2 hr; for effect on ERK1/2 and MEK phosphorylation, inhibitor alone: A375 cells, PLX 4720 1 μM, rapamycin 20 nM, PPP 1 μM
Description: as §1, §2, §3, §4

A375 cells [3] = assay: Cell cycle analysis (propidium iodine, flow cytometer); assay type: cell-based; conditions: for effect on cell cycle, inhibitor alone: PLX4720 1 μM, U0126 10 μM, PD98059 10 μM, rapamycin 20 nM, LY294002 10 μM
Description: (A) Ability of uridine to relieve the cell cycle arrest in the S phase. A375 cells grown in 6-well plates were treated with the indicated concentration of A771726 with or without uridine (200 μM) for 24 hr. Cell cycle was analyzed in a flow cytometer as described in Materials and Methods. (B) Effect of the MAP kinase pathway inhibitors on A77 1726-mediated cell cycle arrest in the S phase. A375 cells were treated with A771726 (100 μM) in the absence or presence of 0.1% DMSO, […] (1 μM), U0126 (10 μM), PD98059 (10 for 24 hr. Single cell suspensions were prepared and analyzed for cell cycle in a flow cytometer. (C) Effect of the PI-3 kinase pathway inhibitors and their effect on A77 1726-mediated cell cycle arrest. A375 cells were treated with A77 1726 (100 μM), rapamycin (20 nM), and/or LY294002 (10 μM). After incubation for 24 hr, cells were harvested and analyzed for cell cycle progress.
(§5) Cells were grown in complete RPMI1640 medium with 10% fetal bovine serum in 6-well plates. Upon 60% confluence, the cells were treated with vehicle or with indicated concentrations of A77 1726 or various inhibitors as indicated for 24 hr. Cells were pulsed with 10 μM BrdU for 2 hr. Cells were harvested, denatured with 2N HCl for 5 min at room temperature followed by neutralization with 0.1M borate buffer (pH 8.5). After washing and blocking with normal mouse serum, the cells were stained with an Alexa Fluor 488-conjugated anti-BrdU monoclonal antibody (BD Bioscience), followed by analysis in a flow cytometer. Alexa Fluor 488-conjugated mouse IgG was included as a control. For cell cycle analysis, the cells were harvested and fixed with 2 ml cold 70% ethanol in PBS overnight at 4° C. Fixed cells were then washed 3 times with PBS, treated with RNaseA (100 μg/ml in 0.5 ml PBS). After incubation at room temperature for 30 min, cells were stained with 2.5 μl propidium iodine (10 mg/ml.) and immediately analyzed for DNA content in a flow cytometer.

A375 cells [4] = assay: BrdU incorporation (DNA replication), flow cytometry; assay type: cell-based; conditions: for block of A77 1726-induced BrdU incorporation / DNA synthesis: A77 1726 100 μM plus inhibitor; for effect on DNA replication (BrdU labeling), inhibitor alone: PLX4720 1 μM, U0126 10 μM, rapamycin 20 nM, LY294002 10 μM
Description: (A) The effect of uridine to A77 1726-induced DNA synthesis. A375 cells were treated with the indicated concentration of A771726 in the absence or presence of uridine (200 μM) for 22 hr. After pulsing with BrdU (10 µM) for 2 hr, cells were harvested and analyzed for BrdU incorporation by staining with an Alexa Fluor-488-conjugated anti-BrdU monoclonal antibody followed by flow cytometry. (B) Effect of the MAP kinase pathway inhibitors to A77 1726-stimulated BrdU incorporation. A375 cells were treated with A77 1726 (100 μM) in the presence of 0.1% DMSO, PLX4720 (1 μM), U0126 (10 µM), PD98059 (10 μM). After incubation for 22 hr the cells were pulsed with BrdU for 2 hr. Single cell suspensions were stained for BrdU incorporation and analyzed for cell cycle in a flow cytometer as described in (A). (C) Effect of the PI-3 kinase pathway inhibitors and their effect on A77 1726-stimualted BrdU incorpration. A375 cells were treated with A771726 (100 μM), rapamycin (20 nM), and/or […] (10 μM). After incubation for 22 hr, cells were pulsed with BrdU for 2 hr, harvested and analyzed for BrdU labeling in a flow cytometer.
as §5

A375 cells [5] = assay: Cell proliferation assay (ATP-based Cell-Glo)
Description: A375 cells were seeded in 96-well plates (2000 cells/well) and incubated the indicated concentrations of A77 1726 for 72 hr in the absence or presence of various concentrations PLX4720 (A, C) with or without uridine (200 μM) (B, D). Cell proliferation was analyzed by an ATP-based Cell-Glo assay. One representative of three experiments with similar results was shown. *p<0.01.
A375 cells were grown in complete RPMI 1640 medium supplemented with 10% fetal bovine serum. The cells were seeded in 96-well plates at the density of 2,000/well in the absence or presence of various concentrations of A77 1726, PLX4720, or uridine (200 μM). After incubation for 72 hr, cell proliferation was monitored by using an ATP-based Cell-Glo assay (Promegan, Madison, Wis.) following the manufacturer's instruction.

[6] = test system: ribosomal protein S6^S235/S236 phosphorylation; assay: Western blot of S6 phosphorylation in A375 cells; assay type: cell-based; conditions: A375 cells; A77 1726 dose-dependent or 100 μM, rapamycin 20 nM, PPP 1 μM
Description: as §1, §2, §3, §4

| SMILES | effect on AKT^S473 phosphorylation in A77 1726-treated cells [1] | block of A77 1726-induced ERK1/2 and MEK1/2 phosphorylation [2] | effect on cell cycle, inhibitor alone (A375 cells [3]; A375 cells, 24 hr) | block of A77 1726-induced BrdU incorporation / DNA synthesis (A375 cells [4]) | effect on ERK1/2 and MEK phosphorylation, inhibitor alone [2] | effect on DNA replication (BrdU labeling), inhibitor alone (A375 cells [4]) | also measured |
| --- | --- | --- | --- | --- | --- | --- | --- |
| CNC(=O)c1cc(Oc2ccc(NC(=O)Nc3ccc(Cl)c(C(F)(F)F)c3)cc2)ccn1 [BAY 43-9006] | further increase | able to block |  |  |  |  |  |
| COc1cccc(-c2cc(=O)c3ccccc3o2)c1N [PD98059] | further increase | unable to block | arrest of the cell cycle in G1 phase | partially blocked |  |  |  |
| CCCS(=O)(=O)Nc1ccc(F)c(C(=O)c2c[nH]c3ncc(Cl)cc23)c1F [PLX4720] | further increase | able to block | arrest of the cell cycle in G1 phase | able to block | inhibited | completely block DNA replication | effect on A375 cell proliferation (A375 cells [5]; PLX4720 100 or 500 nM by itself): inhibited; effect on A375 cell proliferation (A375 cells [5]; PLX4720 at 1 nM by itself): had no effect; effect on A375 cell proliferation in combination with A77 1726 (A375 cells [5]; in the absence or presence of uridine): additive effect |
| COc1cc([C@@H]2c3cc4c(cc3[C@H](O)[C@H]3COC(=O)[C@@H]23)OCO4)cc(OC)c1OC [PPP] |  | abrogated |  |  | had no effect |  | block of A77 1726- and rapamycin-induced AKT phosphorylation ([1]; A375 cells pre-treated with LY294002 10 μM or PPP 1 μM): largely blocked; effect on S6^S235/S236 phosphorylation [6]: had no effect |
| N#CC(=C(/N)Sc1ccccc1N)/C(C#N)=C(\N)Sc1ccccc1N [U0126] | further increase | able to block | arrest of the cell cycle in G1 phase | able to block |  | completely block DNA replication |  |
| O=c1ccn([C@@H]2O[C@H](CO)[C@@H](O)[C@H]2O)c(=O)[nH]1 [Uridine, uridine] |  |  |  |  |  |  | effect on cell cycle of A77 1726-treated cells (A375 cells [3]; A375 cells treated with A77 1726 at three concentrations plus uridine): almost normalize cell cycle; effect on cell cycle arrest, uridine alone (A375 cells [3]; A375 cells, uridine 200 μM, 24 hr): little effect |
